Results taken from patent US5889053A, “Farnesyl transferase inhibitors, preparation thereof and pharmaceuticals compositions containing said inhibitors” (Rhone-Poulenc Rorer S.A., priority 1995, dated 1999).
pIC50: −log10 of the molar value.

Legend:
[1] = molecular target: T1, human farnesyl transferase (Homo sapiens, UniProt P49354+P49356); assay: Inhibition of farnesyl transferase and of farnesylation of the Ras protein ([3H]farnesyl transfer from [3H]FPP to p21 H-Ras); format: biochemical; conditions: p21 H-Ras substrate, 20 min at 37° C., 9 concentrations; read-out: Inhibitory activity IC50
T1 construct: human farnesyl transferase purified from THP1 cell cultures; endogenous in cells; host or cells: THP1
Method: Farnesyl transferase activity is determined by the quantity of [^3 H]farnesyl transferred from [^3 H]farnesyl pyrophosphate ([^3 H]FPP) to the p21 H-Ras protein. The standard reaction mixture is composed, for a final volume of 60 μl, of 50 mM Tris-HCl, 5 mM MgCl2, 5 mM dithiothreitol, 0.2% octyl β-D-glucopyranoside, 200 picomol p21 H-Ras, 4.5 picomol [^3 H]FPP (activity 61000 dpm/picomol).
Reaction is initiated by adding approximately 5 ng of human farnesyl transferase purified from THP1 cell cultures. After incubation for 20 minutes at 37° C. in a microtitration plate containing 96 1-cm^3 wells per plate (Titer Plate®, Beckman), the reaction is stopped by adding 0.4 cm^3 of 0.1% SDS in methanol at 0° C. The mixture is then treated with 0.4 cm^3 of 30% trichloroacetic acid (TCA) in methanol. The plates are left in ice for 1 hour. The precipitated contents are then retained on Filtermat®, Pharmacia) glass fibre membranes with the filtration unit (Combi Cell Harvester®, Skatron), and rinsed with 6% trichloroacetic acid in distilled water. The membranes are dried in a microwave oven, then impregnated with scintillation medium by melting of Meltilex® (Pharmacia) under hot air, and lastly counted in cpm in a β-Plate counter® (LKB). Each test is repeated 3 times.
The unit of activity is defined as 1 picomole of [^3 H]FPP transferred to p21 H-Ras in 20 minutes.
The percentage inhibition values are obtained by comparison of the tests with and without inhibitor after deduction of blanks, the IC50 values being measured on the basis of the inhibitions obtained with 9 different concentrations using Enzfitter® or Grafit® software.

[2] = test system: farnesylation of the Ras protein in THAC cells (CCL 39 cells transfected with activated Ha-Ras); assay: Activity against cells: inhibition of farnesylation of the Ras protein in THAC cells (Western blot); format: cell-based; conditions: CCL39, 24 h at 37° C.
Method: The activity against cells can be determined in the following way:
The cell line is the THAC line (CCL 39 cells transfected with activated Ha-Ras) according to K. Seuwen et al., EMBO J., 7(1) 161-168 (1988). The cells are cultured in Petri dishes with a diameter of 6 cm containing a DMEM medium, 5% foetal calf serum and 1% G418.
After culturing for 24 hours, the culture medium is changed (with or without the serum) and the product to be studied is added in solution in dimethylformamide (DMF), in the presence or in the absence of DTT (final concentrations of 0.5% in DMF and 0.1 mM in DTT). After culturing for 24 hours at 37° C., the cells are lysed in 1 cm^3 of lysis buffer (20 mM Tris, HCl, 1% Triton X114, 5 mM MgCl2, 7 mM DTT, 150 mM NaCl, pH=7.4). The lysates are clarified by centrifuging at 4000 revolutions/minute for 10 minutes. […] The radioactivity of the bands corresponding to farnesylated Ras and to non-farnesylated Ras makes it possible to determine the percentage of inhibition of farnesylation of the Ras protein.

Compound	pIC50 [1]	inhibition at 10 µM [2] [%]
CSCC[C@H](NC(=S)c1cc(NC[C@@H](N)CS)cc2ccccc12)C(=O)O [Example 6, N-[3-(2(R)-amino-3-mercaptopropylamino)naphthyl-1-thiocarbonyl]-L-methionine]	7.26	
CSCC[C@H](NC(=O)c1ccc(NC[C@@H](N)CS)c2ccccc12)C(=O)O [Example 1, N-[4-(2(R)-amino-3-mercaptopropylamino)naphthyl-1-carbonyl]-L-methionine]	7.64	
COC(=O)[C@H](CCSC)NC(=O)c1cc(NC[C@@H](N)CS)cc2ccccc12 [Example 5, methyl ester of N-[3-(2(R)-amino-3-mercaptopropylamino)naphthyl-1-carbonyl]-L-methionine]	6.52	
COC(=O)[C@H](CCSC)NC(=O)c1ccc(NC[C@@H](N)CS)c2ccccc12 [Example 2, methyl ester of N-[4-(2(R)-amino-3-mercaptopropylamino)naphthyl-1-carbonyl]-L-methionine]	7.00	40
CSCC[C@H](NC(=O)c1cc(NC[C@@H](N)CS)cc2ccccc12)C(=O)O [Example 4, N-[3-(2(R)-amino-3-mercaptopropylamino)naphthyl-1-carbonyl]-L-methionine]	7.51	
